Measurements published in ChEMBL document CHEMBL1201862, “PubChem BioAssay data set” (2004).
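96-well plates; 48 h exposure; 5 concentrations. Endpoints by linear interpolation between flanking doses. Not reached: highest tested concentration assigned. The concentration for 50% growth inhibition is given as GI50.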 Activity calls are given as the source filed them. Rule as the data show it: active = GI50 up to about 1.1 µM and inactive = higher. *1 amine or outer side, *2 acyl side, *3 side chain or, on linkers, in order; H or OH if unused. Where a SMILES comes first, the peptide text is derived from it. Bridges are numbered along the chain shown (N, C = ends). [ ]: non-standard residue; d: D form. ξ: configuration not given here. X10 = CCC(C)C(N[*:1])C(O)CC(=O)O[C@H](C(=O)C(C)C(=O)[*:2])C(C)C; NMeY = CN[C@@H](Cc1ccc(O)cc1)C(=O)O; ξNMeL = CNC(CC(C)C)C(=O)O; ξT = CC(O)C(N)C(=O)O

What was measured:
Experiment in all cases: growth of human tumour cells (NCI), 48 h
NCI/ADR-RES = tested on: NCI/ADR-RES
M14 = tested on: M14
NCI-H522 = tested on: NCI-H522
SK-MEL-5 = tested on: SK-MEL-5
MDA-MB-231 = tested on: MDA-MB-231
SNB-19 = tested on: SNB-19
SK-OV-3 = tested on: SK-OV-3
MOLT-4 = tested on: MOLT-4
HOP-92 = tested on: HOP-92
MDA-N = tested on: MDA-N
UACC-257 = tested on: UACC-257
SR = tested on: SR
RXF 393 = tested on: RXF 393
IGROV-1 = tested on: IGROV-1
OVCAR-8 = tested on: OVCAR-8
HOP-62 = tested on: HOP-62
SN12C = tested on: SN12C
HL-60 = tested on: HL-60
786-0 = tested on: 786-0
HCT-15 = tested on: HCT-15

| SMILES | GI50 (NCI/ADR-RES) | GI50 (M14) | GI50 (NCI-H522) | GI50 (SK-MEL-5) | GI50 (MDA-MB-231) | GI50 (SNB-19) | GI50 (SK-OV-3) | GI50 (MOLT-4) | GI50 (HOP-92) | GI50 (MDA-N) | GI50 (UACC-257) | GI50 (SR) | GI50 (RXF 393) | GI50 (IGROV-1) | GI50 (OVCAR-8) | GI50 (HOP-62) | GI50 (SN12C) | GI50 (HL-60) | GI50 (786-0) | GI50 (HCT-15) |
| --- | --- | --- | --- | --- | --- | --- | --- | --- | --- | --- | --- | --- | --- | --- | --- | --- | --- | --- | --- | --- |
| O=C1/C(=C/c2ccc(O)cc2)CC/C1=C\c1ccc(O)cc1 | 28.3 µM (inactive) | > 100 µM (inactive) | 49.4 µM (inactive) | > 100 µM (inactive) | > 100 µM (inactive) | > 87.1 µM (inactive) | > 100 µM (inactive) | 7.14 µM (inactive) | > 68.9 µM (inactive) | > 100 µM (inactive) | > 100 µM (inactive) | 3.37 µM (inactive) | > 100 µM (inactive) | > 100 µM (inactive) | > 81.5 µM (inactive) | > 61.8 µM (inactive) | > 64.6 µM (inactive) | 0.458 µM (active) | > 41 µM (inactive) | > 100 µM |
| COc1ccc2nc3ccc(OC)cc3c([S+]([O-])CCCl)c2c1 (stereo not given) | 15.2 µM (inactive) | 3.52 µM (inactive) | 1.67 µM (inactive) | 14.9 µM (inactive) | 5.87 µM (inactive) | 22.5 µM (inactive) | 20.7 µM (inactive) | 2.82 µM (inactive) | 2.49 µM (inactive) | 2.44 µM (inactive) | 2.21 µM (inactive) | 2.67 µM (inactive) | 3.59 µM (inactive) | 2.48 µM (inactive) | 2.67 µM (inactive) | 18.1 µM (inactive) | 1.94 µM (inactive) | 2.31 µM (inactive) | 1.76 µM (inactive) | 2.65 µM |
| COc1cc(Oc2nc3c(N)cc(C(F)(F)F)cc3nc2-c2ccccc2)cc(OC)c1OC | 2.09 µM (inactive) | 5.81 µM (inactive) | 2.08 µM (inactive) | 2.77 µM (inactive) | 10.2 µM (inactive) | 3.17 µM (inactive) | 4.53 µM (inactive) | 3.44 µM (inactive) | 14.7 µM (inactive) | 0.412 µM (active) | 4.09 µM (inactive) | 0.624 µM (active) | 5.71 µM (inactive) | 0.916 µM (active) | 4.91 µM (inactive) | 3.29 µM (inactive) | 8.07 µM (inactive) | 1.16 µM (inactive) | 3.97 µM (inactive) | 3.53 µM |
| CCC(C)C1NC(=O)C(NC(=O)C(CC(C)C)N(C)C(=O)[C@@H]2CCCN2)C(C)OC(=O)[C@H](Cc2ccc(OC)cc2)N(C)C(=O)[C@@H]2CCCN2C(=O)[C@H](CC(C)C)NC(=O)C(C)C(=O)[C@H](C(C)C)OC(=O)CC1O (stereo not given in full) (H-P[ξNMeL][ξT][X10]LP[NMeY](Me); ester 3-C) | 0.0521 µM (active) | 0.000222 µM (active) | 0.000366 µM (active) | < 0.0001 µM (active) | 0.00042 µM (active) | 0.000721 µM (active) | 0.000386 µM (active) | 0.000244 µM (active) | 0.00121 µM (active) | 0.000346 µM (active) | 0.000815 µM (active) | 0.000317 µM (active) | < 0.01 µM (active) | 0.000288 µM (active) | 0.00221 µM (active) | 0.00126 µM (active) | 0.000411 µM (active) | 0.00389 µM (active) | 0.000564 µM (active) | 0.016 µM |
| COc1cccc(C(=O)N[C@@H]2[C@H](O)[C@@H](CO)O[C@H]2n2cnc3c(N)ncnc32)c1 | > 100 µM (inactive) | > 100 µM (inactive) | > 100 µM (inactive) | > 100 µM (inactive) | > 100 µM (inactive) | > 100 µM (inactive) | > 100 µM (inactive) | > 100 µM (inactive) | > 100 µM (inactive) | > 100 µM (inactive) | > 100 µM (inactive) | > 100 µM (inactive) | > 100 µM (inactive) | > 100 µM (inactive) | > 100 µM (inactive) | > 100 µM (inactive) | > 100 µM (inactive) | > 100 µM (inactive) | > 100 µM (inactive) | > 100 µM |
| Cc1ccsc1C(=S)Nc1ccc(Cl)c(/C=N/OC(C)C)c1 | 30 µM (inactive) | 37.7 µM (inactive) | 28.3 µM (inactive) | 25.2 µM (inactive) | 41.2 µM (inactive) | 44.5 µM (inactive) | 55.5 µM (inactive) | 11.2 µM (inactive) | > 100 µM (inactive) | 37.8 µM (inactive) | 47.9 µM (inactive) | 16.3 µM (inactive) | 20.5 µM (inactive) | 25.8 µM (inactive) | 44.3 µM (inactive) | 64.9 µM (inactive) | 32.5 µM (inactive) | 10.3 µM (inactive) | 42.5 µM (inactive) | 15.5 µM |
| C=C(CN(C)C)C(=O)c1cc(C)ccc1C | 18.3 µM (inactive) | 2.11 µM (inactive) | 0.843 µM (active) | 13.3 µM (inactive) | 8.83 µM (inactive) | 19.9 µM (inactive) | 18.4 µM (inactive) | 0.371 µM (active) | 2.81 µM (inactive) | 6.84 µM (inactive) | 7.96 µM (inactive) | 0.726 µM (active) | 2.61 µM (inactive) | 18 µM (inactive) | 20.7 µM (inactive) | 18.7 µM (inactive) | 15.6 µM (inactive) | 0.232 µM (active) | 2.96 µM (inactive) | 4.13 µM |
